Test system: SNAP-tag (hINS-SNAP) in INS-1 cells
Experiment: Dual-color labeling (TMR-Star, BTP block, BG505) of living INS-1 cells expressing hINS-SNAP; co-localization analysis
Assay type: cell-based, rat
Protocol: The first labeling was carried out for 15 min with 2 μM TMR (red) in normal media (I ml per well), followed by 2×PBS wash and 30 min, incubation in media without the SNAP substrate. The labeling with 10 μM BTP lasted 20 min. followed by two washings with PBS and 30 min incubation in media without BTP. The period between the BTP administration and the BG505 (green) administration was 4 hour long, so that any unbound BTP had sufficient time to be cleared out of the cells, thus allowing the labeling of newly synthesized hlns-SNAP. During this period […] additional washings were performed: two times with PBS and two times with media.
Cells were then incubated with 10 μM BG505 for 30 min, followed by two washings with PBS, 30 min incubation in media and another PBS washing. After the last washing, the cells were fixed (4% PFA, pH: 7.4 for 10 min at 4° C.) and embedded (ProLong Gold antifade reagent with DAPI, P36931, Molecular Probes). […]
Software analysis of the acquired images allowed the generation of images representing the co-localized pixels from both channels and also the characteristic scattered plots. […] The calculated Pearson's coefficients (10 μM BTP: 0.515; 0 μM BTP: 0.829) calculated according to Bolte et al., are in agreement with this interpretation.

SNAP-tag (hINS-SNAP) in INS-1 cells, sequence (P16455 1-182 C62A/K125A/A127T/R128A/G131K/G132T/M134L/R135S/C150S/N157G/S159E limits assumed): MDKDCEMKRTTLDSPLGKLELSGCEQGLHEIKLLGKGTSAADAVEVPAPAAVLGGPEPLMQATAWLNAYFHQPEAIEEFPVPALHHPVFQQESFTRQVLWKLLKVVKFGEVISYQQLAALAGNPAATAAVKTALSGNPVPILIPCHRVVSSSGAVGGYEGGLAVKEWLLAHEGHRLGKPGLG

Substance: bromothenylpteridine [BTP]
- Pearson's coefficient (co-localization of TMR and BG505 pixels) (INS-1 cells exposed sequentially to TMR, 10 μM BTP and BG505, control without blocker (0 μM BTP): 0.829): 0.515
- Co-localized pixels (white) of red and green channels (blocking step with BTP interposed between sequential labelings with TMR-Star and BG505, many co-localized pixels when BTP omitted): No co-localization

Reference: patent publication US20160370353A1, “METHOD FOR DISTINGUISHING SECRETORY GRANULES OF DIFFERENT AGES” (TECHNISCHE UNIVERSITÄT DRESDEN MEDIZINISCHE FAKULTÄT CARL …, priority 2008, published 2016)
